Laboratory results from patent US20100076489A1, “WOUND CLOSURE MATERIAL” (priority 2007, published 2010).

Assay: Saturation concentration of paclitaxel in various release media (HPLC)
Assay type: physicochemical
Experimental: Paclitaxel concentrations were then measured with a Waters 2965 series HPLC (commercially available from Waters Corporation). A 20 μL from each sample was injected into a Phenomenex ODS-2 INERTSIL (5.0 μm, 150 mm×4.6, from Phenomenex) which was maintained at about 30° C. The sample runs were conducted for about 10 minutes, with a flow rate at 0.8 mL/minute. The mobile phase included about 55% acetonitrile and 45% water (v/v). The paclitaxel was detected at a wavelength of about 230 nm with a photodiode array detector (Waters series 2996, commercially available from Waters Corporation).
A release medium, including phosphate buffered saline (PBS) with about 0.1% of a polyethoxylated fatty acid ester of sorbitan (also referred to as polysorbates, commercially available as TWEEN™ 80) (w/v) and about 0.5% sodium dodecylsulfate (SDS) (w/v) was prepared as follows. About 100 mL of 10×PBS concentrate was added to a 1 liter volumetric flask. The flask was filled to the line with Milli-Q water and stirred for about 15 minutes. To the solution, about 1 mL of TWEEN™ 80 was added and stirred with a magnetic stir bar until the TWEEN™ 80 was completely dissolved. Approximately 5 grams of sodium dodecylsulfate was then added and the solution was stirred for about 45 minutes. The pH of the solution was tested and found to be about 7.3.
The saturation concentration of paclitaxel in various release media was determined using the previously mentioned high pressure liquid chromatography method. In addition to the release media including PBS with about 0.1% TWEEN™ 80 and 0.5% Sodium Dodecyl Sulfate described above, other media were similarly tested. The additional media included PBS with about 0.1% by weight PLURAFAC® surfactant (commercially available from BASF), PBS with about 0.1% by weight TWEEN™ 80, and PBS with about 0.8% by weight Dimethyl-b-Cyclodextrin. A summary of the results is provided below in Table 1.

Saturation concentration of Paclitaxel (Media: PBS w/0.1% Plurafac): 0.1 ± .01 µg/mL | Saturation concentration of Paclitaxel (Media: PBS w/0.1% TWEEN 80): 2.2 ± 0.2 µg/mL | Saturation concentration of Paclitaxel (Media: PBS w/0.1% TWEEN 80 and 0.5% Sodium Dodecyl Sulfate): 52.8 ± 6.4 µg/mL | Saturation concentration of Paclitaxel (Media: PBS w/0.8% Dimethyl-b-Cyclodextrin): 7.3 µg/mL
SMILES: CC(=O)O[C@H]1C(=O)[C@@]2(C)[C@H]([C@H](OC(=O)c3ccccc3)[C@]3(O)C[C@H](OC(=O)[C@H](O)[C@@H](NC(=O)c4ccccc4)c4ccccc4)C(C)=C1C3(C)C)[C@]1(OC(C)=O)CO[C@@H]1C[C@@H]2O [Paclitaxel, paclitaxel]
